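Five compound concentrations were applied to cells in 96-well plates for 48 hours; endpoints were derived by simple linear interpolation of the resulting dose-response curve. GI50: concentration for 50% inhibition of growth.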 Active and inactive are the calls of the source. No stated cut-off is given here; in the data, active = GI50 up to about 1.1 µM and inactive = higher.
Key:
Test in all cases: inhibition of tumour cell growth, NCI panel, 48 h
HCT-15 = system: HCT-15
SK-MEL-28 = system: SK-MEL-28
MDA-N = system: MDA-N
LOX IMVI = system: LOX IMVI
NCI-H522 = system: NCI-H522
SR = system: SR
UO-31 = system: UO-31
NCI-H23 = system: NCI-H23
HOP-62 = system: HOP-62
SK-OV-3 = system: SK-OV-3
HT-29 = system: HT-29
NCI-H226 = system: NCI-H226
BT-549 = system: BT-549
SF-539 = system: SF-539
U-251 = system: U-251
SNB-19 = system: SNB-19
SF-295 = system: SF-295
OVCAR-4 = system: OVCAR-4
SW-620 = system: SW-620
M19-MEL = system: M19-MEL

Compound	GI50 (HCT-15) [µM]	GI50 (SK-MEL-28)	GI50 (MDA-N)	GI50 (LOX IMVI)	GI50 (NCI-H522)	GI50 (SR)	GI50 (UO-31)	GI50 (NCI-H23)	GI50 (HOP-62)	GI50 (SK-OV-3)	GI50 (HT-29)	GI50 (NCI-H226)	GI50 (BT-549)	GI50 (SF-539)	GI50 (U-251)	GI50 (SNB-19)	GI50 (SF-295)	GI50 (OVCAR-4)	GI50 (SW-620)	GI50 (M19-MEL)
COC(=O)C1=C(C)NC(C)=C([N+](=O)[O-])C1c1cccc(N=O)c1 (stereo not drawn)	14.2	17.9 µM (inactive)	10 µM (inactive)	16.1 µM (inactive)	1.66 µM (inactive)	3.36 µM (inactive)	12.1 µM (inactive)	18.5 µM (inactive)	19.2 µM (inactive)	21.9 µM (inactive)	16.8 µM (inactive)	22 µM (inactive)	16.7 µM (inactive)	16.8 µM (inactive)	18 µM (inactive)	29.7 µM (inactive)	21.7 µM (inactive)	11.9 µM (inactive)	3.58 µM (inactive)	–
O=C(O[C@H]1[C@@H](O)[C@H](n2cnc3c(Cl)ncnc32)O[C@@H]1COC(c1ccccc1)(c1ccccc1)c1ccccc1)c1ccccc1	17.4	46.3 µM (inactive)	35.9 µM (inactive)	4.91 µM (inactive)	5.09 µM (inactive)	2.67 µM (inactive)	1.27 µM (inactive)	20.4 µM (inactive)	16.7 µM (inactive)	71 µM (inactive)	18.5 µM (inactive)	13 µM (inactive)	18.2 µM (inactive)	20 µM (inactive)	22.8 µM (inactive)	39.3 µM (inactive)	19.8 µM (inactive)	30.3 µM (inactive)	54.5 µM (inactive)	–
COC(=O)CC(C(C(=O)OCc1ccccc1)C(C)O)N1C(=O)OC(c2ccccc2)C1c1ccccc1 (stereo not drawn)	> 100	> 100 µM (inactive)	–	> 100 µM (inactive)	–	81.5 µM (inactive)	48.9 µM (inactive)	> 100 µM (inactive)	> 100 µM (inactive)	–	> 100 µM (inactive)	> 100 µM (inactive)	–	> 100 µM (inactive)	> 100 µM (inactive)	> 100 µM (inactive)	64.6 µM (inactive)	> 100 µM (inactive)	> 100 µM (inactive)	> 100 µM (inactive)
O=C(c1ccc(Cl)cc1Cl)N(Cc1cccnc1)C(=S)N(Cc1cccnc1)C(=O)c1ccc(Cl)cc1Cl	3.12	10.9 µM (inactive)	2.31 µM (inactive)	3.64 µM (inactive)	2.94 µM (inactive)	3.4 µM (inactive)	4.26 µM (inactive)	12.2 µM (inactive)	2.37 µM (inactive)	19.3 µM (inactive)	2.38 µM (inactive)	16.7 µM (inactive)	3.72 µM (inactive)	2.22 µM (inactive)	3.15 µM (inactive)	12 µM (inactive)	22.2 µM (inactive)	2.72 µM (inactive)	3.68 µM (inactive)	–
